According to the NIST ThermoML archive (doi:10.1016/j.jct.2014.01.012):
± gives the expanded uncertainty stated by the source.

Assay: xn = mol fraction of the nth substance listed
Details: 101 kPa, Liquid; for speed of sound: Sing-around technique in a fixed-path interferometer; for mass density: Vibrating tube method

CCCCCCn1cc[n+](C)c1.F[P-](F)(F)(F)(F)F [1-hexyl-3-methylimidazolium hexafluorophosphate] + CCCCOC(C)=O
Details | mass density [kg/m3] | speed of sound [m/s]
293.15 K, x1 = 0.0956 | 951.75 ± 0.29 | 1232 ± 1.5
293.15 K, x1 = 0.1919 | 1012.58 ± 0.41 | 1254.6 ± 1.6
293.15 K, x1 = 0.273 | 1056.82 ± 0.58 | 1279.1 ± 1.8
293.15 K, x1 = 0.3698 | 1103.12 ± 0.85 | 1306.9 ± 1.9
293.15 K, x1 = 0.4639 | 1141.87 ± 1.2 | 1329.4 ± 2.1
293.15 K, x1 = 0.5701 | 1179.57 ± 1.6 | 1354.2 ± 2.3
293.15 K, x1 = 0.6787 | 1213.07 ± 2.1 | 1375.9 ± 2.5
293.15 K, x1 = 0.7746 | 1239.19 ± 2.6 | 1395 ± 2.8
293.15 K, x1 = 0.8707 | 1262.73 ± 3.2 | 1412 ± 3
293.15 K, x1 = 0.9354 | 1277.66 ± 3.7 | 1425 ± 3.1
293.15 K, x1 = 1 | 1291.38 ± 4.2 | 1436.9 ± 3.2
298.15 K, x1 = 0.0956 | 947.32 ± 0.29 | 1211.1 ± 1.5
298.15 K, x1 = 0.1919 | 1008.36 ± 0.4 | 1234 ± 1.6
298.15 K, x1 = 0.273 | 1052.6 ± 0.58 | 1258.9 ± 1.8
298.15 K, x1 = 0.3698 | 1098.76 ± 0.84 | 1286.7 ± 1.9
298.15 K, x1 = 0.4639 | 1137.51 ± 1.2 | 1309.5 ± 2.1
298.15 K, x1 = 0.5701 | 1175.41 ± 1.6 | 1334.8 ± 2.3
298.15 K, x1 = 0.6787 | 1209.24 ± 2.1 | 1357.2 ± 2.5
298.15 K, x1 = 0.7746 | 1235.56 ± 2.6 | 1377.6 ± 2.8
298.15 K, x1 = 0.8707 | 1259.27 ± 3.2 | 1395.9 ± 3
298.15 K, x1 = 0.9354 | 1273.93 ± 3.7 | 1409.2 ± 3.1
298.15 K, x1 = 1 | 1287.34 ± 4.1 | 1423.5 ± 3.2
303.15 K, x1 = 0.0956 | 942.923 ± 0.3 | 1190.1 ± 1.5
303.15 K, x1 = 0.1919 | 1004.08 ± 0.4 | 1212.6 ± 1.6
303.15 K, x1 = 0.273 | 1048.36 ± 0.57 | 1237.4 ± 1.8
303.15 K, x1 = 0.3698 | 1094.3 ± 0.83 | 1265.2 ± 1.9
303.15 K, x1 = 0.4639 | 1133.2 ± 1.1 | 1289.9 ± 2.1
303.15 K, x1 = 0.5701 | 1171.25 ± 1.6 | 1317.5 ± 2.3
303.15 K, x1 = 0.6787 | 1205.24 ± 2.1 | 1342.6 ± 2.5
303.15 K, x1 = 0.7746 | 1231.69 ± 2.6 | 1360.1 ± 2.8
303.15 K, x1 = 0.8707 | 1255.4 ± 3.2 | 1382.6 ± 3
303.15 K, x1 = 0.9354 | 1270.13 ± 3.7 | 1397.1 ± 3.1
303.15 K, x1 = 1 | 1283.29 ± 4.1 | 1410.6 ± 3.2
308.15 K, x1 = 0.0956 | 938.4 ± 0.3 | 1170.2 ± 1.5
308.15 K, x1 = 0.1919 | 999.626 ± 0.39 | 1195.2 ± 1.6
308.15 K, x1 = 0.273 | 1043.86 ± 0.56 | 1223.8 ± 1.8
308.15 K, x1 = 0.3698 | 1089.96 ± 0.83 | 1252.4 ± 1.9
308.15 K, x1 = 0.4639 | 1128.94 ± 1.1 | 1282.6 ± 2.1
308.15 K, x1 = 0.5701 | 1167.43 ± 1.6 | 1309.4 ± 2.3
308.15 K, x1 = 0.6787 | 1201.36 ± 2.1 | 1335.2 ± 2.5
308.15 K, x1 = 0.7746 | 1227.89 ± 2.6 | 1354.9 ± 2.8
308.15 K, x1 = 0.8707 | 1251.38 ± 3.2 | 1369.7 ± 3
308.15 K, x1 = 0.9354 | 1265.98 ± 3.6 | 1384.4 ± 3.1
308.15 K, x1 = 1 | 1279.4 ± 4.1 | 1398.2 ± 3.2
313.15 K, x1 = 0.0956 | 933.877 ± 0.3 | 1150.1 ± 1.5
313.15 K, x1 = 0.1919 | 995.525 ± 0.39 | 1177 ± 1.6
313.15 K, x1 = 0.273 | 1039.84 ± 0.56 | 1206.8 ± 1.8
313.15 K, x1 = 0.3698 | 1085.95 ± 0.82 | 1236.5 ± 1.9
313.15 K, x1 = 0.4639 | 1124.72 ± 1.1 | 1267.5 ± 2.1
313.15 K, x1 = 0.5701 | 1163.39 ± 1.6 | 1295.4 ± 2.3
313.15 K, x1 = 0.6787 | 1197.76 ± 2.1 | 1321.8 ± 2.5
313.15 K, x1 = 0.7746 | 1224.59 ± 2.6 | 1341.9 ± 2.8
313.15 K, x1 = 0.8707 | 1248.25 ± 3.2 | 1356.9 ± 3
313.15 K, x1 = 0.9354 | 1262.68 ± 3.6 | 1372 ± 3.1
313.15 K, x1 = 1 | 1275.48 ± 4.1 | 1386 ± 3.2
318.15 K, x1 = 0.0956 | 929.385 ± 0.3 | 1130.3 ± 1.5
318.15 K, x1 = 0.1919 | 991.164 ± 0.39 | 1158.8 ± 1.6
318.15 K, x1 = 0.273 | 1035.44 ± 0.55 | 1189.8 ± 1.8
318.15 K, x1 = 0.3698 | 1081.67 ± 0.81 | 1220.7 ± 1.9
318.15 K, x1 = 0.4639 | 1120.61 ± 1.1 | 1252.5 ± 2.1
318.15 K, x1 = 0.5701 | 1159.18 ± 1.5 | 1280.7 ± 2.3
318.15 K, x1 = 0.6787 | 1193.95 ± 2 | 1308.5 ± 2.5
318.15 K, x1 = 0.7746 | 1221 ± 2.6 | 1329 ± 2.8
318.15 K, x1 = 0.8707 | 1244.79 ± 3.2 | 1344.4 ± 3
318.15 K, x1 = 0.9354 | 1258.89 ± 3.6 | 1359.8 ± 3.1
318.15 K, x1 = 1 | 1271.56 ± 4 | 1374.2 ± 3.2
323.15 K, x1 = 0.0956 | 924.824 ± 0.3 | 1110.4 ± 1.5
323.15 K, x1 = 0.1919 | 986.823 ± 0.39 | 1140.8 ± 1.6
323.15 K, x1 = 0.273 | 1031.16 ± 0.55 | 1172.9 ± 1.8
323.15 K, x1 = 0.3698 | 1077.6 ± 0.81 | 1205.1 ± 1.9
323.15 K, x1 = 0.4639 | 1116.43 ± 1.1 | 1237.1 ± 2.1
323.15 K, x1 = 0.5701 | 1155.28 ± 1.5 | 1267 ± 2.3
323.15 K, x1 = 0.6787 | 1190.27 ± 2 | 1295.7 ± 2.5
323.15 K, x1 = 0.7746 | 1217.39 ± 2.5 | 1316.4 ± 2.7
323.15 K, x1 = 0.8707 | 1241.1 ± 3.1 | 1332.1 ± 3
323.15 K, x1 = 0.9354 | 1255.1 ± 3.6 | 1347.8 ± 3.1
323.15 K, x1 = 1 | 1267.63 ± 4 | 1362.5 ± 3.2
